Test results reported in patent US10759777B2, “Carbazole-containing amides, carbamates, and ureas as cryptochrome modulators” (Synchronicity Pharma, Inc., priority 2014, dated 2020).

Assays:
[1] = system: core clock genes Per2, Bmal1, Cry2 in liver; assay: Four day study, liver core clock gene mRNA in ICR mice; format: in vivo, mouse; settings: 50 mg/kg PO BID 4 days; for liver Per2 expression: ZT6
Protocol: Male ICR mice (weighing 30-35 g), obtained from Charles River Laboratories (Hollister, Calif.), were used for the experiment following at least 3 days of acclimation. Mice were dosed with vehicle (WFI or 10% Kolliphor) or compound (50 mg/kg, dose volume 5 mL/kg, PO) for 4 days BID (twice a day), beginning in the afternoon of the first day. The last dose of compound or vehicle was administered on the morning of harvest. On the day of harvest (6 hours following the final dose), mice were euthanized by CO2 asphyxiation and 50 mg of liver tissue was excised and placed in a tube containing 500 μl of RNA later.
E.Z.N.A.® HP Total RNA Isolation Kits (R6812-01 and the protocol described in the Manual, Revised 2010) were utilized to prepare and isolate RNA from the liver samples. To prepare the RNA samples, 10-30 mg of sample was removed from RNA-Later and placed in a 1.5 ml microfuge tube. GTC lysis buffer (700 μl) was added to the tissue, which was homogenized with a rotor-stator homogenizer (e.g. Tissue-Tearor, Model #985370 BioSpec Products with 4.5 mm probe, Cat. #985370-04), and then centrifuged at full speed (≥13,000×g) for 5 minutes. The cleared supernatant was transferred by pipetting to a DNA Clearance Column Pre-inserted in a 2 mL Collection Tube. The assembled column was centrifuged at 13,000×g for 1 minute, and the flow-through was saved. An equal volume (700 μl) of 70% ethanol was added to the lysate and mixed. The sample was then applied to a HiBind RNA spin column placed into a 2 ml collection tube, which was centrifuged at 10,000×g for 60 seconds at room temperature. RNA Wash Buffer I (250 μl) was added by pipetting directly onto a new HiBind RNA column inserted in a 2 ml collection tube. The assembled column was centrifuged at 10,000×g for 60 seconds. The RNA column was placed into a new 2 ml collection tube. DNase I stock solution is pipetted (75 μl) directly onto the surface of the HiBind RNA resin in each column (Using DNAse Digestion with RNase Free DNase Set (E1091): for each HiBind RNA column, the DNase I stock solution was prepared as followed: E.Z.N.A.® DNase I Digestion Buffer 73.5 μl, RNase Free DNase I (20 Kunitz/μl) 1.5 μl=Total Volume 75 μl). The column with bound RNA was incubated at room temperature (25-30° C.) for 15 minutes. RNA Wash Buffer I (500 μl) was added to the column and placed on a bench top for 2 minutes. After centrifuging at 10,000×g for 60 seconds, discarding the flow-through, 500 μl of RNA Wash Buffer II was added and centrifuged at 10,000×g for 60 seconds. Another 500 μl of RNA Wash Buffer II was added and the column assembly was centrifuged at 10,000×g for 60 seconds. The column was centrifuged for 2 minutes at maximum speed to completely dry the HiBind matrix. The column was placed in a clean 1.5 ml microcentrifuge tube and 40-70 μl of molecular biology grade water is added. After sitting for 1 minute, the column was centrifuged for 2 minutes at maximum speed to elute the RNA. The isolated RNA was collected into the collection tube.
RediPlate 96 RiboGreen RNA Quantification Kit (Invitrogen) RediPlate standard curve was prepared by transferring 20 l reconstituted RNA standard to a RediPlate well reconstituted in 180 l RediPlate TE buffer. For liver RNAs prepared from 30-100 mg of tissue using a kit similar to the Omega Bio-Tek HP Total RNA Kit and eluted in RNAse-free water in a volume of 50 l (microliters), 5 l of the total RNA is diluted in 195 l of RediPlate TE buffer (1:40 dilution of RNA), mix. After transferring 5 l to RediPlate well reconstituted in 195 l TE buffer and incubating 10 min. at RT, Fluorescence Intensity of wells with standards and samples were read in a Tecan M200 with Excitation set at 480 nm and Emission set at 520 nm with the gain set to ˜70%. Alternatively, one can use the FlexStation 3 with Ex 488 nm and Em 525 nm and a Cutoff of 515 nm.

[2] = system: stable U20S reporter cells harboring Per2-dLuc; assay: Per2 assay for evaluating the potency of test compounds (Per2-dLuc luminescence amplitude); format: cell-based
Protocol: Compounds were screened by using a high-throughput circadian assay system as previously described in Zhang, E. E. et al. Cell, 2009, 139, 199-210. In brief, stable U20S reporter cells harboring Per2-dLuc were plated at a density of 30,000 cells/well in Corning 96-well, solid white, flat bottom, TC-treated microplates (Corning®), and incubated for 48 hours at 37° C. in the presence of 5% CO2 in a medium of Dulbecco's Modified Eagle Medium (DMEM) supplemented with 10% fetal bovine serum (FBS) and penicillin (100 units/mL)-streptomycin (100 μg/mL). […] DMSO stocks are then serially diluted in DMSO, typically diluting 3-fold for each dilution step. […] Immediately following synchronization, 1 μL of compound dilution is added to each well. Plates are sealed, shaken briefly, and gene expression was monitored by measuring luminescence (Tecan® Infinite M200 or Tecan® Infinite M200 Pro) continuously for a minimum of 3 days at 35° C. Raw luminescence data (counts) are first analyzed using Multicycle™ software (Actimetrics, Inc.) to determine the amplitude (amp), period, and phase (phz) for each compound concentration. The period length for control wells (i.e. no compound, DMSO only) should be 26-30 h. Amp data are then plotted against the logarithm compound concentration (M) and analyzed by nonlinear regression analysis to determine the EC50.

[3] = system: rat model of cortisone-induced insulin resistance; assay: Cortisone induced insulin resistance in rats; format: in vivo; settings: cortisone 30 mg/kg sc with vehicle po
Protocol: Animals were dosed with cortisone (30 mg/kg sc qd) in combination with test compounds for 6 days and then terminated 27 hours after the final dose of cortisone. A reference standard (Mifepristone) was also included. Cortisone 21-acetate (Sigma C-3130) was supplied by RenaSci and administered using a dose volume of 5 ml/kg via the subcutaneous route as a fine suspension in 1% methylcellulose. […] Mifepristone (Sigma M8046) was provided by RenaSci.
Glucose and insulin determinations were performed on plasma samples obtained from a tail vein bleed taken after a 12 h fast, approximately 27 h after the last cortisone dose. Animals were then terminated and a terminal (cardiac) blood sample taken from which plasma was prepared.
Thirty four male Sprague Dawley rats (weight range 200-250 g) were ordered from Charles River, Margate, Kent, UK. […] Subsequently, animals underwent a 3 day baseline period during which they were dosed once daily with vehicle at t=0 h (07:00). […] Body weight was recorded immediately before dosing began at 07:00 (t=0 h).
On Day 6 of dosing rats were fasted for 12 h beginning at 22:30 (timed to coincide with the Day 7 termination). […] At 10:30 on Day 7, 27 h after the final dose of cortisone, a blood sample (300 μl) was taken from the lateral tail vein into tubes containing EDTA (Sarstedt 16.444). The blood was centrifuged and resultant plasma aliquot stored at −75° C. The animals were euthanized by CO2 asphyxiation followed by cervical dislocation. Terminal blood (approximately 10 ml) was collected by cardiac puncture into tubes containing EDTA (Sarstedt 5 ml 32.332) and then centrifuged and plasma stored at −75° C. The tail vein plasma was analyzed for glucose (n=2) using a commercial clinical reagent (Thermoelectron Infinity glucose reagent (TR15421) and for insulin (n=1) using the Mercodia ultrasensitive rat insulin rat ELISA (10-1251-10).
Plasma glucose and insulin were analyzed by robust regression or general linear model with treatment as a factor and bleeding order and baseline body weight as covariates. A log transformation was used if appropriate. Appropriate multiple comparison tests (two-tailed) were used to determine significant differences from the vehicle group and from the Cortisone group. P<0.05 was considered to be statistically significant.

O=C1C2CCC(C2)N1CC(O)Cn1c2ccc(F)cc2c2cc(F)ccc21 (stereo not drawn) [Compound 48, 2-(3-(3,6-difluoro-9H-carbazol-9-yl)-2-hvdroxypropyl)-2-azabicyclo[2.2.1]heptan-3-one] was tested, and the “liver Per2 expression” value [1] was “suppression”, the Cry2 transcripts ([1]; liver) was “decrease” and the “increase in Bmal1 mRNA at ZT6” value ([1]; liver) was 8 fold.

For COC1CCCN(CC(O)Cn2c3ccc(F)cc3c3cc(F)ccc32)C1=O (stereo not drawn) [Compound 57, 1-(3-(3,6-difluoro-9H-carbazol-9-yl)-2-hydroxypropyl)-3-methoxypiperidin-2-one], the “liver Per2 expression” value [1] was “suppression” and the “increase in Bmal1 mRNA at ZT6” value ([1]; liver) was no less than 2 fold.

With C[C@@H]1CN(C[C@H](O)Cn2c3ccccc3c3ccccc32)C(=O)N1 [Compound 138, (R)-1-((R)-3-(9H-carbazol-9-yl)-2-hydropropyl)-4-methylimidazolidin-2-one] the EC50 [2] was 520 nM.

C[C@]12CCC(=O)C=C1CC[C@@H]1[C@@H]2C(=O)C[C@@]2(C)[C@H]1CC[C@]2(O)C(=O)CO [Cortisone] was tested, and the HOMA-IR [3] was 95.57+/−11.4 units, the fasted plasma insulin [3] was 8.19 ± 0.91 ng/mL and the fasted plasma glucose ([3]; rats) was 10.17 ± 0.51 mM.
